# Assays:
# Format in all cases: cell-based
# E. coli DH5α = experiment: Antibacterial activity: MIC and growth curve against E. coli DH5α in 96-well plate; settings: minimal inhibitory concentration against E. coli DH5α; 96-well plate, 5×10^5 CFU/mL, 37° C., judged after 8 h
# Method in brief: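 Log-phase bacteria (OD600 ~0.5) resuspended in LB at 5×10^5 CFU/mL, exposed to recombinant protein at 50, 25, 12.5 μg/mL final in triplicate, 37 °C shaking at 175 rpm. OD600 read every 30 min; MIC is lowest concentration showing no growth.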
# E. coli BL21 = experiment: MIC against Gram-negative bacteria: E. coli BL21; settings: 5×10^5 CFU/mL
# Method in brief: (§1)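 Growth inhibition by human EGF domain proteins was scored in LB liquid culture seeded at 5×10^5 CFU/mL. Protein was applied as a two-fold dilution series in triplicate, with shaking incubation at 37° C; MIC is the lowest concentration giving no growth.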
# Pseudomonas aeruginosa = experiment: MIC against Gram-negative bacteria: Pseudomonas aeruginosa; settings: 5×10^5 CFU/mL
# Method in brief: as §1
# Klebsiella pneumonia = experiment: MIC against Gram-negative bacteria: Klebsiella pneumonia; settings: 5×10^5 CFU/mL
# Method in brief: as §1
# Enterobacter cloacae = experiment: MIC against Gram-negative bacteria: Enterobacter cloacae; settings: 5×10^5 CFU/mL
# Method in brief: as §1
# Aeromonas hydrophila = experiment: MIC against Gram-negative bacteria: Aeromonas hydrophila; settings: 5×10^5 CFU/mL
# Method in brief: as §1
# Citrobacter diversus = experiment: MIC against Gram-negative bacteria: Citrobacter diversus; settings: 5×10^5 CFU/mL
# Method in brief: as §1
# Moraxella catarrhalis = experiment: MIC against Gram-negative bacteria: Moraxella catarrhalis; settings: 5×10^5 CFU/mL
# Method in brief: as §1
# Proteus mirabilis = experiment: MIC against Gram-negative bacteria: Proteus mirabilis; settings: 5×10^5 CFU/mL
# Method in brief: as §1
# Proteus vulgaris = experiment: MIC against Gram-negative bacteria: Proteus vulgaris; settings: 5×10^5 CFU/mL
# Method in brief: as §1
# Serratia marcescens = experiment: MIC against Gram-negative bacteria: Serratia marcescens; settings: 5×10^5 CFU/mL
# Method in brief: as §1
# [1] = E. coli BL21, 10 h cultivation at 37° C.
# [2] = P. aeruginosa, 10 h cultivation at 37° C.
# [3] = K. pneumonia, 10 h cultivation at 37° C.
# [4] = E. cloacae, 10 h cultivation at 37° C.
# [5] = A. hydrophila, 10 h cultivation at 37° C.
# [6] = C. diversus, 10 h cultivation at 37° C.
# [7] = M. catarrhalis, 10 h cultivation at 37° C.
# [8] = P. mirabilis, 10 h cultivation at 37° C.
# [9] = P. vulgaris, 10 h cultivation at 37° C.
# [10] = S. marcescens, 10 h cultivation at 37° C.
substance,measurement,setting,value
PRT1449 (ACAPGHFGADCRLQCQCQNGGTCDRFSGCVCPSGWHGVHCE; listed as Homo sapiens),MIC,E. coli DH5α,50 µg/mL
same,MIC against E. coli BL21,E. coli BL21; [1],25 µg/mL
same,MIC against P. aeruginosa,"Pseudomonas aeruginosa; Pseudomonas aeruginosa, 10 h cultivation at 37° C.",12.5 µg/mL
same,MIC against K. pneumonia,"Klebsiella pneumonia; Klebsiella pneumonia, 10 h cultivation at 37° C.",50 µg/mL
same,MIC against E. cloacae,"Enterobacter cloacae; Enterobacter cloacae, 10 h cultivation at 37° C.",12.5 µg/mL
same,MIC against A. hydrophila,"Aeromonas hydrophila; Aeromonas hydrophila, 10 h cultivation at 37° C.",25 µg/mL
same,MIC against C. diversus,"Citrobacter diversus; Citrobacter diversus, 10 h cultivation at 37° C.",50 µg/mL
same,MIC against M. catarrhalis,"Moraxella catarrhalis; Moraxella catarrhalis, 10 h cultivation at 37° C.",12.5 µg/mL
same,MIC against P. mirabilis,"Proteus mirabilis; Proteus mirabilis, 10 h cultivation at 37° C.",50 µg/mL
same,MIC against P. vulgaris,"Proteus vulgaris; Proteus vulgaris, 10 h cultivation at 37° C.",12.5 µg/mL
same,MIC against S. marcescens,"Serratia marcescens; Serratia marcescens, 10 h cultivation at 37° C.",50 µg/mL
PRT647 (DVDECLRPDVCGEGHCVNTVGAFRCEYCDSGYRMTQRGRCE; listed as Homo sapiens),MIC,E. coli DH5α,25 µg/mL
same,MIC E. coli BL21,"E. coli BL21; 96-well plate, 37° C., 10 h",12.5 µg/mL
same,MIC P. aeruginosa,"Pseudomonas aeruginosa; 96-well plate, 37° C., 10 h",25 µg/mL
same,MIC K. pneumonia,"Klebsiella pneumonia; 96-well plate, 37° C., 10 h",50 µg/mL
same,MIC E. cloacae,"Enterobacter cloacae; 96-well plate, 37° C., 10 h",12.5 µg/mL
same,MIC A. hydrophila,"Aeromonas hydrophila; 96-well plate, 37° C., 10 h",50 µg/mL
same,MIC C. diversus,"Citrobacter diversus; 96-well plate, 37° C., 10 h",12.5 µg/mL
same,MIC M. catarrhalis,"Moraxella catarrhalis; 96-well plate, 37° C., 10 h",50 µg/mL
same,MIC P. mirabilis,"Proteus mirabilis; 96-well plate, 37° C., 10 h",12.5 µg/mL
same,MIC P. vulgaris,"Proteus vulgaris; 96-well plate, 37° C., 10 h",50 µg/mL
same,MIC S. marcescens,"Serratia marcescens; 96-well plate, 37° C., 10 h",25 µg/mL
PRT423 (QPNTCKDNGPCKQVCSTVGGSAICSCFPGYAIMADGVSCE; listed as Homo sapiens),MIC,E. coli DH5α,12.5 µg/mL
same,MIC,E. coli BL21; [1],25 µg/mL
same,MIC,Pseudomonas aeruginosa; [2],12.5 µg/mL
same,MIC,Klebsiella pneumonia; [3],25 µg/mL
same,MIC,Enterobacter cloacae; [4],50 µg/mL
same,MIC,Aeromonas hydrophila; [5],25 µg/mL
same,MIC,Citrobacter diversus; [6],12.5 µg/mL
same,MIC,Moraxella catarrhalis; [7],25 µg/mL
same,MIC,Proteus mirabilis; [8],50 µg/mL
same,MIC,Proteus vulgaris; [9],25 µg/mL
same,MIC,Serratia marcescens; [10],12.5 µg/mL
PRT468 (LCTPRCMNGGLCVTPGFCICPPGFYGVNCD; listed as Homo sapiens),MIC,E. coli DH5α,25 µg/mL
same,MIC against E. coli BL21,"E. coli BL21; 96-well plate, 37° C., 10 h",12.5 µg/mL
same,MIC against P. aeruginosa,"Pseudomonas aeruginosa; 96-well plate, 37° C., 10 h",25 µg/mL
same,MIC against K. pneumonia,"Klebsiella pneumonia; 96-well plate, 37° C., 10 h",50 µg/mL
same,MIC against E. cloacae,"Enterobacter cloacae; 96-well plate, 37° C., 10 h",25 µg/mL
same,MIC against A. hydrophila,"Aeromonas hydrophila; 96-well plate, 37° C., 10 h",12.5 µg/mL
same,MIC against C. diversus,"Citrobacter diversus; 96-well plate, 37° C., 10 h",50 µg/mL
same,MIC against M. catarrhalis,"Moraxella catarrhalis; 96-well plate, 37° C., 10 h",12.5 µg/mL
same,MIC against P. mirabilis,"Proteus mirabilis; 96-well plate, 37° C., 10 h",50 µg/mL
same,MIC against P. vulgaris,"Proteus vulgaris; 96-well plate, 37° C., 10 h",12.5 µg/mL
same,MIC against S. marcescens,"Serratia marcescens; 96-well plate, 37° C., 10 h",50 µg/mL
PRT600 (CDCNPLGSLPFLTCDVDTGQCLCLSYVTGAHCEECTVGYWGLGNHLHGCSP; listed as Homo sapiens),MIC,E. coli DH5α,25 µg/mL
same,MIC E. coli BL21,"E. coli BL21; 96-well plate, 37° C., 10 h",12.5 µg/mL
same,MIC P. aeruginosa,"Pseudomonas aeruginosa; 96-well plate, 37° C., 10 h",25 µg/mL
same,MIC K. pneumonia,"Klebsiella pneumonia; 96-well plate, 37° C., 10 h",50 µg/mL
same,MIC E. cloacae,"Enterobacter cloacae; 96-well plate, 37° C., 10 h",25 µg/mL
same,MIC A. hydrophila,"Aeromonas hydrophila; 96-well plate, 37° C., 10 h",12.5 µg/mL
same,MIC C. diversus,"Citrobacter diversus; 96-well plate, 37° C., 10 h",25 µg/mL
same,MIC M. catarrhalis,"Moraxella catarrhalis; 96-well plate, 37° C., 10 h",50 µg/mL
same,MIC P. mirabilis,"Proteus mirabilis; 96-well plate, 37° C., 10 h",25 µg/mL
same,MIC P. vulgaris,"Proteus vulgaris; 96-well plate, 37° C., 10 h",12.5 µg/mL
same,MIC S. marcescens,"Serratia marcescens; 96-well plate, 37° C., 10 h",25 µg/mL
PRT521 (CNCNSFGSKSFDCEESGQCWCQPGVTGKKCDRCAHGYFNFQEGGCTA; listed as Homo sapiens),MIC,E. coli DH5α,50 µg/mL
same,MIC against E. coli BL21,"E. coli BL21; 96-well plate, 37° C., 10 h",25 µg/mL
same,MIC against P. aeruginosa,"Pseudomonas aeruginosa; 96-well plate, 37° C., 10 h",12.5 µg/mL
same,MIC against K. pneumonia,"Klebsiella pneumonia; 96-well plate, 37° C., 10 h",25 µg/mL
same,MIC against E. cloacae,"Enterobacter cloacae; 96-well plate, 37° C., 10 h",50 µg/mL
same,MIC against A. hydrophila,"Aeromonas hydrophila; 96-well plate, 37° C., 10 h",25 µg/mL
same,MIC against C. diversus,"Citrobacter diversus; 96-well plate, 37° C., 10 h",12.5 µg/mL
same,MIC against M. catarrhalis,"Moraxella catarrhalis; 96-well plate, 37° C., 10 h",25 µg/mL
same,MIC against P. mirabilis,"Proteus mirabilis; 96-well plate, 37° C., 10 h",50 µg/mL
same,MIC against P. vulgaris,"Proteus vulgaris; 96-well plate, 37° C., 10 h",25 µg/mL
same,MIC against S. marcescens,"Serratia marcescens; 96-well plate, 37° C., 10 h",12.5 µg/mL
PRT185 (ELSECDSNPCRNGGSCKDQEDGYHCLCPPGYYGLHCE; listed as Homo sapiens),MIC,E. coli DH5α,50 µg/mL
same,MIC (μg/mL) E. coli BL21,E. coli BL21; [1],25 µg/mL
same,MIC (μg/mL) P. aeruginosa,Pseudomonas aeruginosa; [2],12.5 µg/mL
same,MIC (μg/mL) K. pneumonia,Klebsiella pneumonia; [3],25 µg/mL
same,MIC (μg/mL) E. cloacae,Enterobacter cloacae; [4],50 µg/mL
same,MIC (μg/mL) A. hydrophila,Aeromonas hydrophila; [5],25 µg/mL
same,MIC (μg/mL) C. diversus,Citrobacter diversus; [6],12.5 µg/mL
same,MIC (μg/mL) M. catarrhalis,Moraxella catarrhalis; [7],50 µg/mL
same,MIC (μg/mL) P. mirabilis,Proteus mirabilis; [8],12.5 µg/mL
same,MIC (μg/mL) P. vulgaris,Proteus vulgaris; [9],12.5 µg/mL
same,MIC (μg/mL) S. marcescens,Serratia marcescens; [10],50 µg/mL
